The experiment has as its system peripheral blood mononuclear cell (PBMC). In words: Peripheral blood mononuclear cell assay. Particulars: compounds 1h, washed, 15 hour incubation, average of one to four donors.
The mark [1] stands for this setting: read-out: PBMC EC50 IFN-α, interferon-alpha level in medium.
Where [2] appears, read: read-out: PBMC EC50 IFN-γ, interferon-gamma level in medium.
Where [3] appears, read: read-out: PBMC EC50 TNF-α, tumor necrosis factor-alpha level in medium.

We go through 14 molecules from patent US12318403B2, “2′3′-cyclic dinucleotides and prodrugs thereof” (INSTITUTE OF ORGANIC CHEMISTRY AND BIOCHEMISTRY ASCR, V.V.I., priority 2019, dated 2025).

Each structure is given as a SMILES string. Where two headings read alike, the source gives them in different places.

Procedure: Selected compounds were tested in an in vitro peripheral blood mononuclear cell (PBMC) assay. […] Serially diluted tested compounds were added to wells in 50 μl of cultivation medium and cells were incubated with the compounds for 1h at 37° C. with 5% CO2. Plates with cells were then spun 500 g for 5 minutes and the medium was removed. Cells were washed twice with the cell culture medium by the use of centrifugation and gently resuspended in 100 μl medium without compounds. After 15 hour incubation at 37° C. with 5% CO2, the cell culture medium was collected and the levels of interferon-alpha (INF-α), interferon-gamma (INF-γ) and tumor necrosis factor-alpha (TNF-α) were determined with ProcartaPlex Assays (ThermoFisher, Waltham, USA) and MAGPIX System (Merck KGaA, Darmstadt, Germany). […] Values reported are an average of runs from one to four donors.

Regarding `CCCCCCCCCCCCCCOC(=O)OCSP1(=O)OC[C@H]2O[C@@H](n3cnc4c(N)ncnc43)[C@H](F)[C@@H]2OCP(=O)(O)OC[C@H]2O[C@@H](n3cnc4c(=O)[nH]cnc43)[C@H](O1)[C@@H]2F` (stereo partly drawn) [Compound 72b, {[(1S,6R,8R,9R,10R,16R,18R,19R)-8-(6-amino-9H-purin-9-yl)-9,19-difluoro-13-hydroxy-3,13-dioxo-18-(6-oxo-6,9-dihydro-1H-purin-9-yl)-2,4,7,11,14,17-hexaoxa-3λ^5,13λ^5-diphosphatricyclo[14.2.1.0^6,10]nonadecan-3-yl]sulfanyl}methyl tetradecyl carbonate], the EC50 came out at 1.7 µM under setting [1], 0.8 µM under setting [2] and 1.6 µM under setting [3].
Turning to `CCCCCCCCCCCCCCCCOC(=O)OCSP1(=O)OC[C@H]2O[C@@H](n3cnc4c(N)ncnc43)[C@H](F)[C@@H]2OCP(=O)(O)OC[C@H]2O[C@@H](n3cnc4c(=O)[nH]cnc43)[C@H](O1)[C@@H]2F` (stereo partly drawn) [Compound 73b, {[(1S,6R,8R,9R,10R,16R,18R,19R)-8-(6-amino-9H-purin-9-yl)-9,19-difluoro-13-hydroxy-3,13-dioxo-18-(6-oxo-6,9-dihydro-1H-purin-9-yl)-2,4,7,11,14,17-hexaoxa-3λ^5,13λ^5-diphosphatricyclo[14.2.1.0^6,10]nonadecan-3-yl]sulfanyl}methyl hexadecyl carbonate], the concentration for a half-maximal effect (EC50) is, setting by setting: under setting [1], 3 µM; under setting [2], 7 µM; under setting [3], 4 µM.
Consider `CCCCCCCCCCCCOC(=O)OCSP1(=O)OC[C@H]2O[C@@H](n3cnc4c(N)ncnc43)[C@H](F)[C@@H]2OCP(=O)(O)OC[C@H]2O[C@@H](n3cnc4c(=O)[nH]c(N)nc43)[C@H](O1)[C@@H]2F` (stereo partly drawn) [Compound 59b, {[(1S,6R,8R,9R,10R,16R,18R,19R)-18-(2-amino-6-oxo-6,9-dihydro-1H-purin-9-yl)-8-(6-amino-9H-purin-9-yl)-9,19-difluoro-13-hydroxy-3,13-dioxo-2,4,7,11,14,17-hexaoxa-3λ^5,13λ^5-diphosphatricyclo[14.2.1.0^6,10]nonadecan-3-yl]sulfanyl}methyl dodecyl carbonate], for which the EC50 is, setting by setting: under setting [1], 1.8 µM; under setting [2], 2.2 µM; under setting [3], 2.1 µM.
`CC(C)(C)C(=O)OCOc1ccc(CSP2(=O)OC[C@H]3O[C@@H](n4cnc5c(N)ncnc54)[C@H](F)[C@@H]3OCP(=O)(O)OC[C@H]3O[C@@H](n4cnc5c(=O)[nH]c(N)nc54)[C@H](O2)[C@@H]3F)cc1` (single isomer, unassigned) [Compound 39b]: the EC50 was determined as 0.9 µM under setting [1], 1.4 µM under setting [2] and 1 µM under setting [3].
As to `Nc1nc2c(ncn2[C@@H]2O[C@@H]3COP(=O)(O)O[C@H]4[C@@H](O)[C@H](n5cnc6c(N)ncnc65)O[C@@H]4COP(=O)(O)O[C@@H]2[C@@H]3O)c(=O)[nH]1` [2′3′-cGAMP, c[G(2′,5′)pA(3′,5′)p], reference compound], the concentration for a half-maximal effect (EC50) reads like this: under setting [1], 300 µM; under setting [2], 164 µM; under setting [3], 210 µM.
`CCCCCCCCCCCCCCCC(=O)OCSP1(=O)OC[C@H]2O[C@@H](n3cnc4c(N)ncnc43)[C@H](F)[C@@H]2OCP(=O)(O)OC[C@H]2O[C@@H](n3cnc4c(=O)[nH]cnc43)[C@H](O1)[C@@H]2F` (single isomer, unassigned) [Compound 64a]: the concentration giving a half-maximal response (EC50) was 0.6 µM under setting [1], 2.6 µM under setting [2] and 0.4 µM under setting [3].
As for `CCCCCCCCCCCCCCCCCCOC(=O)OCSP1(=O)OC[C@H]2O[C@@H](n3cnc4c(N)ncnc43)[C@H](F)[C@@H]2OCP(=O)(O)OC[C@H]2O[C@@H](n3cnc4c(=O)[nH]cnc43)[C@H](O1)[C@@H]2F` (stereo partly drawn) [Compound 74b, {[(1S,6R,8R,9R,10R,16R,18R,19R)-8-(6-amino-9H-purin-9-yl)-9,19-difluoro-13-hydroxy-3,13-dioxo-18-(6-oxo-6,9-dihydro-1H-purin-9-yl)-2,4,7,11,14,17-hexaoxa-3λ^5,13λ^5-diphosphatricyclo[14.2.1.0^6,10]nonadecan-3-yl]sulfanyl}methyl octadecyl carbonate], the EC50 worked out at 2.2 µM under setting [1], 2.4 µM under setting [2] and 3 µM under setting [3].
Consider `CCCCCCCC(=O)OCSP1(=O)OC[C@H]2O[C@@H](n3cnc4c(N)ncnc43)[C@H](F)[C@@H]2OCP(=O)(O)OC[C@H]2O[C@@H](n3cnc4c(=O)[nH]cnc43)[C@H](O1)[C@@H]2F` (stereo partly drawn) [Compound 63b, {[(1S,6R,8R,9R,10R,16R,18R,19R)-8-(6-amino-9H-purin-9-yl)-9,19-difluoro-13-hydroxy-3,13-dioxo-18-(6-oxo-6,9-dihydro-1H-purin-9-yl)-2,4,7,11,14,17-hexaoxa-3λ^5,13λ^5-diphosphatricyclo[14.2.1.0^6,10]nonadecan-3-yl]sulfanyl}methyl octanoate], for which the EC50 by setting is: under setting [1], 9 µM; under setting [2], 3.7 µM; under setting [3], 8 µM.
For the molecule `CCCCCCCCCCCC(=O)OCSP1(=O)OC[C@H]2O[C@@H](n3cnc4c(N)ncnc43)[C@H](F)[C@@H]2OCP(=O)(O)OC[C@H]2O[C@@H](n3cnc4c(=O)[nH]cnc43)[C@H](O1)[C@@H]2F` (single isomer, unassigned) [Compound 56a], the EC50 is, setting by setting: under setting [1], 1.6 µM; under setting [2], 2.2 µM; under setting [3], 1.8 µM.
For `CCCCCCCCCCCC(=O)OCSP1(=O)OC[C@H]2O[C@@H](n3cnc4c(N)ncnc43)[C@H](F)[C@@H]2OCP(=O)(O)OC[C@H]2O[C@@H](n3cnc4c(=O)[nH]cnc43)[C@H](O1)[C@@H]2F` (single isomer, unassigned) [Compound 56b], the EC50 under setting [1] turned out to be 3 µM, the half-maximal effective concentration (EC50) under setting [2] turned out to be 1.3 µM and the concentration for a half-maximal effect (EC50) under setting [3] stood at 2 µM.
As to `CCCCCCCCCCCCCCCC(=O)OCSP1(=O)OC[C@H]2O[C@@H](n3cnc4c(N)ncnc43)[C@H](F)[C@@H]2OCP(=O)(O)OC[C@H]2O[C@@H](n3cnc4c(=O)[nH]cnc43)[C@H](O1)[C@@H]2F` (single isomer, unassigned) [Compound 64b], the 50% effective concentration (EC50) reads like this: under setting [1], 1.4 µM; under setting [2], 0.8 µM; under setting [3], 2 µM.
As for `CCCCCCCCCC(=O)Oc1ccc(CSP2(=O)OC[C@H]3O[C@@H](n4cnc5c(N)ncnc54)[C@H](F)[C@@H]3OCP(=O)(O)OC[C@H]3O[C@@H](n4cnc5c(=O)[nH]c(N)nc54)[C@H](O2)[C@@H]3F)cc1` (single isomer, unassigned) [Compound 35a], the concentration giving a half-maximal response (EC50) came out at 2.6 µM under setting [1], 3.2 µM under setting [2] and 1.9 µM under setting [3].
Consider `CCCCCC(=O)Oc1ccc(C(=O)Oc2ccc(CSP3(=O)OC[C@H]4O[C@@H](n5cnc6c(N)ncnc65)[C@H](F)[C@@H]4OCP(=O)(O)OC[C@H]4O[C@@H](n5cnc6c(=O)[nH]c(N)nc65)[C@H](O3)[C@@H]4F)cc2)cc1` (single isomer, unassigned) [Compound 40b], for which the EC50 runs as follows: under setting [1], 8.1 µM; under setting [2], 10.4 µM; under setting [3], 10.4 µM.
For the molecule `CCCCCCCCCCCC(=O)OCSP1(=O)OC[C@H]2O[C@@H](n3cnc4c(N)ncnc43)[C@H](F)[C@@H]2OCP(=O)(O)OC[C@H]2O[C@@H](n3cnc4c(=O)[nH]c(N)nc43)[C@H](O1)[C@@H]2F` (single isomer, unassigned) [Compound 57b], the half-maximal effective concentration (EC50) by setting is: under setting [1], 1.7 µM; under setting [2], 2.5 µM; under setting [3], 1.6 µM.

Usually EC50 stands for the midpoint of the concentration-response curve.
